pEC50, pIC50: −log10 of the molar value. Like-named read-outs stand apart in the source and are kept apart here.
How the values were obtained:
PRMT5/MEP50 = PRMT5/MEP50 (Homo sapiens (Human), UniProt O14744); experiment: PRMT5 Biochemical Assay (PRMT5/MEP50 enzyme assay on peptide substrate, 3H-SAM Flashplate)
Excerpt: S-adenosylmethionine (SAM), S-adenosylhomocysteine (SAH), bicine, KCl, Tween20, dimethylsulfoxide (DMSO), bovine skin gelatin (BSG), and Tris(2-carboxyethyl)phosphine hydrochloride solution (TCEP) were purchased from Sigma-Aldrich at the highest level of purity possible. ^3H-SAM was purchase from American Radiolabeled Chemicals with a specific activity of 80 Ci/mmol. 384-well streptavidin Flashplates were purchased from PerkinElmer.
Peptide representative of human histone H4 residues 1-15 was synthesized with a C-terminal linker-affinity tag motif and a C-terminal amide cap by 21st Century Biochemicals.
The amplified genes were sublconed into pENTR/D/TEV (Life Technologies) and subsequently transferred by Gateway™ attL×attR recombination to pDEST8 baculovirus expression vector (Life Technologies).
Protein over-expression was accomplished by infecting exponentially growing Spodoptera frugiperda (SF9) cell culture at 1.2×10^6 cell/ml with a 5000 fold dilution of BIIC stock. Infections were carried out at 27° C. for 72 hours, harvested by centrifugation, and stored at −80° C. for purification.
Flag-PRMT5/6His-MeP50 was eluted with 300 mM Imidazole in the same buffer.
General Procedure for PRMT5/MEP50 Enzyme Assays on Peptide Substrates.
The assays were all performed in a buffer consisting of 20 mM Bicine (pH=7.6), 1 mM TCEP, 0.005% BSG, and 0.002% Tween20, prepared on the day of use. […] DMSO (1 ul) was added to Columns 11, 12, 23, 24, rows A-H for the maximum signal control and 1 ul of SAH, a known product and inhibitor of PRMT5/MEP50, was added to columns 11, 12, 23, 24, rows I-P for the minimum signal control. A cocktail (40 ul) containing the PRMT5/MEP50 enzyme and the peptide was added by Multidrop Combi (Thermo-Fisher). The compounds were allowed to incubate with PRMT5/MEP50 for 30 min at 25 degrees Celsius, then a cocktail (10 ul) containing ^3H-SAM was added to initiate the reaction (final volume=51 ul). […] The assays were stopped by the addition of non-radioactive SAM (10 ul) to a final concentration of 600 uM, which dilutes the ^3H-SAM to a level where its incorporation into the peptide substrate is no longer detectable. 50 ul of the reaction in the 384-well polypropylene plate was then transferred to a 384-well Flashplate and the biotinylated peptides were allowed to bind to the streptavidin surface for at least 1 hour before being washed three times with 0.1% Tween20 in a Biotek ELx405 plate washer. The plates were then read in a PerkinElmer TopCount plate reader to measure the quantity of ^3H-labeled peptide bound to the Flashplate surface, measured as disintegrations per minute (dpm) or alternatively, referred to as counts per minute (cpm).
[formula] [formula] Where dpm=disintegrations per minute, cmpd=signal in assay well, and min and max are the respective minimum and maximum signal controls.
[formula] [formula] Where top and bottom are the normally allowed to float, but may be fixed at 100 or 0 respectively in a 3-parameter fit. The Hill Coefficient normally allowed to float but may also be fixed at 1 in a 3-parameter fit. Y is the % inhibition and X is the compound concentration.

[1] = test system: symmetric di-methyl arginine in Z-138 cells; experiment: Z-138 Methylation Assay (In Cell Western for symmetric di-methyl arginine and DNA content); type: cell-based; details: Homo sapiens, read-out: ICW EC50
Procedure, shortened: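 In-cell western: symmetric di-methyl arginine signal ratioed to DRAQ5 DNA content after 96 h compound exposure of Z-138 cells seeded at 50,000 cells/mL.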

Z-138 cell line = experiment: Z-138 Proliferation Assay (Cell Titer Glo, 5 days); type: cell-based; details: Homo sapiens, 120 h, Z-138 cells, 5 days, read-out: Proliferation EC50
Procedure, shortened: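 Viability via CellTiter-Glo luminescence (ATP) after 5-day incubation at 37 °C, 5% CO2. Compounds tested in triplicate, nine 3-fold steps, highest final concentration 20 μM in 0.2% DMSO; 50% inhibitory concentration by 4-parameter fit of normalized curves.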

Sequence of PRMT5/MEP50 (O14744 other isoform, or with tags, fused parts or gaps): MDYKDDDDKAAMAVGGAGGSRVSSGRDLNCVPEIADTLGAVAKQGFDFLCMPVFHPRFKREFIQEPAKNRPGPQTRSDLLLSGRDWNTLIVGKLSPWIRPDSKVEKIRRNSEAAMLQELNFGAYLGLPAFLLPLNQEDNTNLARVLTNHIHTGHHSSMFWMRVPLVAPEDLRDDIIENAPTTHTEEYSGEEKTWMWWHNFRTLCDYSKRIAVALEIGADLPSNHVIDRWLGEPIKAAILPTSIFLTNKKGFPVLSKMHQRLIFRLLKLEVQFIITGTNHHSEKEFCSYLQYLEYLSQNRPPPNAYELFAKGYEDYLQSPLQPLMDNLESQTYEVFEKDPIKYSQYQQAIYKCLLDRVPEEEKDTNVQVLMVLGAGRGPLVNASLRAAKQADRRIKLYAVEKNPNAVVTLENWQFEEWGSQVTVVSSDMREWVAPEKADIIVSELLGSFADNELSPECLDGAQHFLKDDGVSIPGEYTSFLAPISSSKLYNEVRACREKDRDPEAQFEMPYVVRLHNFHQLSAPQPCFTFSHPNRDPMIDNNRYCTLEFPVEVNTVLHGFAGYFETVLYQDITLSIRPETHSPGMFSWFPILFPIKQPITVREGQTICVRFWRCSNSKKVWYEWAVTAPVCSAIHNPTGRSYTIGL
Sequence of PRMT5/MEP50 (Q9BQA1 other isoform, or with tags, fused parts or gaps partner): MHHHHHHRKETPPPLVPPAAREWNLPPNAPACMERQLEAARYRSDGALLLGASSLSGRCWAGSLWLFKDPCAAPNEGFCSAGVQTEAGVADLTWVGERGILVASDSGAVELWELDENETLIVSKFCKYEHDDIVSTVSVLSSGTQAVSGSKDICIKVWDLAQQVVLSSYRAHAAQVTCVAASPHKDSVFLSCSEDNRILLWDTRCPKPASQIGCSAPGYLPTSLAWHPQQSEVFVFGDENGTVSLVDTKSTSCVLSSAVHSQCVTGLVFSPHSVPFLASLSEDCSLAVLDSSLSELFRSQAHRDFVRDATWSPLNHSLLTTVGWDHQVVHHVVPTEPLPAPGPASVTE

Row | Structure (SMILES) | pIC50 (PRMT5/MEP50) | pEC50 [1] | pEC50 (Z-138 cell line) | pIC50 (PRMT5/MEP50; PRMT5 biochemical assay) | pEC50 (Z-138 cell line; Cell Titer Glo)
1 | O=C(NCC(O)CN1CCc2ccccc2C1)c1ccccc1-c1ccccn1 (centres unmarked) [Compound 12, N-(3-(3,4-dihydroisoquinolin-2(1H)-yl)-2-hydroxypropyl)-2-(pyridin-2-yl)benzamide] | 6.00 to 7.00 | 5.00 to 6.00 | < 4.70 |  | 
2 | O=C(NCC(O)CN1CCc2ccccc2C1)c1ccccn1 (centres unmarked) [Compound 17, N-(3-(3,4-dihydroisoquinolin-2(1H)-yl)-2-hydroxypropyl)picolinamide] | 6.00 to 7.00 | 6.00 to 7.00 | < 4.70 |  | 
3 | O=C(NCC(O)CN1CCc2ccccc2C1)c1cccnc1 (centres unmarked) [Compound 18] | 6.00 to 7.00 | 6.00 to 7.00 | 4.30 to 5.00 |  | 
4 | NS(=O)(=O)c1ccc(C(=O)NCC(O)CN2CCc3ccccc3C2)cc1 (centres unmarked) [Compound 21, N-(3-(3,4-dihydroisoquinolin-2(1H)-yl)-2-hydroxypropyl)-4-sulfamoylbenzamide] | 6.00 to 7.00 | 6.00 to 7.00 | < 4.70 |  | 
5 | NC(=O)c1ccc(C(=O)NCC(O)CN2CCc3ccccc3C2)cc1 (centres unmarked) [Compound 22] | 6.00 to 7.00 | 6.00 to 7.00 | < 4.70 |  | 
6 | CC(=O)Nc1ccc(C(=O)NCC(O)CN2CCc3ccccc3C2)cc1 (centres unmarked) [Compound 23, 4-acetamido-N-(3-(3,4-dihydroisoquinolin-2(1H)-yl)-2-hydroxypropyl)benzamide] | 6.00 to 7.00 | 6.00 to 7.00 | < 4.70 |  | 
7 | NC(=O)c1cccc(C(=O)NCC(O)CN2CCc3ccccc3C2)c1 (centres unmarked) [Compound 25] | 6.00 to 7.00 | 5.00 to 6.00 | < 4.70 |  | 
8 | CC(=O)Nc1cccc(C(=O)NCC(O)CN2CCc3ccccc3C2)c1 (centres unmarked) [Compound 26] | 6.00 to 7.00 | 6.00 to 7.00 | 4.30 to 5.00 |  | 
9 | CS(=O)(=O)Nc1ccc(C(=O)NCC(O)CN2CCc3ccccc3C2)cc1 (centres unmarked) [Compound 31] | 6.00 to 7.00 | 6.00 to 7.00 | 4.30 to 5.00 |  | 
10 | NS(=O)(=O)c1cccc(C(=O)NCC(O)CN2CCc3ccccc3C2)c1 (centres unmarked) [Compound 32] | 6.00 to 7.00 | 6.00 to 7.00 | < 4.70 |  | 
11 | CNCCOc1cccc(C(=O)NCC(O)CN2CCc3ccccc3C2)c1 (centres unmarked) [Compound 39] | 6.00 to 7.00 | 5.00 to 6.00 | < 4.70 |  | 
12 | O=C(NCC(O)CN1CCc2ccccc2C1)c1cccc(C2CCCN2)c1 (centres unmarked) [Compound 42, N-(3-(3,4-dihydroisoquinolin-2(1H)-yl)-2-hydroxypropyl)-3-(pyrrolidin-2-yl)benzamide] | 6.00 to 7.00 | 5.00 to 6.00 | < 4.70 |  | 
13 | CN1CCC(Nc2cccc(C(=O)NCC(O)CN3CCc4ccccc4C3)c2)C1 (centres unmarked) [Compound 120] | > 7.00 | 6.00 to 7.00 | 5.00 to 6.00 |  | 
14 | CN1CCC(Nc2cc(C(=O)NC[C@H](O)CN3CCc4ccccc4C3)ncn2)CC1 [Compound 206] | > 7.00 | 6.00 to 7.00 | 5.00 to 6.00 |  | 
15 | O=C(NC[C@H](O)CN1CCc2ccccc2C1)c1cncc(OC2CCN(CC(F)(F)F)CC2)c1 [Compound 289] | > 7.00 | > 7.00 | 6.00 to 7.00 |  | 
16 | O=C(NC[C@H](O)CN1CCc2ccccc2C1)c1cccc2ccccc12 [Compound 295] | > 7.00 | > 7.00 | 5.00 to 6.00 |  | 
17 | O=C(NC[C@H](O)CN1CCc2ccccc2C1)c1cncc(NC2CCN(CC(F)(F)F)C2)c1 (some centres unmarked) [Compound 303] | 6.00 to 7.00 | 6.00 to 7.00 | 5.00 to 6.00 |  | 
18 | CC(=O)N1CCC(Oc2cncc(C(=O)NC[C@H](O)CN3CCc4ccccc4C3)c2)CC1 [Compound 304] | > 7.00 | > 7.00 | 5.00 to 6.00 |  | 
19 | O=C(NC[C@H](O)CN1CCc2ccccc2C1)c1ccc2[nH]nnc2c1 [Compound 305] | > 7.00 | > 7.00 | 6.00 to 7.00 |  | 
20 | Cc1cnc(OC2CCOCC2)cc1C(=O)NC[C@H](O)CN1CCc2ccccc2C1 [Compound 309] | > 7.00 | > 7.00 | 5.00 to 6.00 |  | 

Row | Structure (SMILES) | pIC50 (PRMT5/MEP50) | pEC50 [1] | pEC50 (Z-138 cell line) | pIC50 (PRMT5/MEP50; PRMT5 biochemical assay) | pEC50 (Z-138 cell line; Cell Titer Glo)
21 | Cc1ncc(NC2CCNC2)cc1C(=O)NC[C@H](O)CN1CCc2ccccc2C1 (some centres unmarked) [Compound 310] | > 7.00 | > 7.00 | 6.00 to 7.00 |  | 
22 | CN(C[C@H](O)CN1CCc2ccccc2C1)C(=O)c1cc(N(C)C2CCOCC2)ncn1 [Compound 313] | > 7.00 | > 7.00 | 5.00 to 6.00 |  | 
23 | CN(C)C(=O)CNCCOc1cccc(C(=O)NCC(O)CN2CCc3ccccc3C2)c1 (centres unmarked) [Compound 340] | 6.00 to 7.00 | 6.00 to 7.00 | < 4.70 |  | 
24 | Cc1cnc(NC2CNC2)cc1C(=O)NC[C@H](O)CN1CCc2ccccc2C1 [Compound 341] | > 7.00 | < 6.00 | < 4.70 |  | 
25 | Cn1ccc(Nc2cc(C(=O)NC[C@H](O)CN3CCc4ccccc4C3)ccn2)n1 [Compound 342] | > 7.00 | > 7.00 | 5.00 to 6.00 |  | 
26 | O=C(NC[C@H](O)CN1CCc2ccccc2C1)c1ccnc(Nc2cccnc2)c1 [Compound 343] | > 7.00 | > 7.00 | > 7.00 |  | 
27 | O=C(NC[C@H](O)CN1CCc2ccccc2C1)c1ccc2cccnc2c1O [Compound 344] | 6.00 to 7.00 | < 6.00 | 5.00 to 6.00 |  | 
28 | CN(C)CCCOc1ccc(C(=O)NC[C@H](O)CN2CCc3ccccc3C2)cc1 [Compound 345] | > 7.00 | > 7.00 | 6.00 to 7.00 |  | 
29 | CCN1CCC(Oc2ccc(C(=O)NC[C@H](O)CN3CCc4ccccc4C3)cc2)CC1 [Compound 346] | > 7.00 | > 7.00 | 6.00 to 7.00 |  | 
30 | O=C(NC[C@H](O)CN1CCc2ccccc2C1)c1ccc(OC2CCCNC2)cc1 (some centres unmarked) [Compound 347] | > 7.00 | > 7.00 | 6.00 to 7.00 |  | 
31 | Cc1cc(C(=O)NC[C@H](O)CN2CCc3ccccc3C2)cc(NC2CCC2)n1 [Compound 348] | > 7.00 | > 7.00 | 6.00 to 7.00 |  | 
32 | O=C(NC[C@H](O)CN1CCc2ccccc2C1)c1cc(NC2CCC2)nc(N2CCOCC2)c1 [Compound 349] | > 7.00 | > 7.00 | > 7.00 |  | 
33 | O=C(NC[C@H](O)CN1CCc2ccccc2C1)c1ccnc(OC2CCC2)c1 [Compound 350] | > 7.00 | > 7.00 | 6.00 to 7.00 |  | 
34 | O=C(NC[C@H](O)CN1CCc2ccccc2C1)c1cc(N[C@H]2CCOC2)ncn1 [Compound 351] | > 7.00 | > 7.00 | 6.00 to 7.00 |  | 
35 | COCCNc1cc(C(=O)NC[C@H](O)CN2CCc3ccccc3C2)ncn1 [Compound 352] | 6.00 to 7.00 | > 7.00 | 5.00 to 6.00 |  | 
36 | CN(C)CCNc1cc(C(=O)NC[C@H](O)CN2CCc3ccccc3C2)ncn1 [Compound 353] | > 7.00 | 6.00 to 7.00 | 4.30 to 5.00 |  | 
37 | CCC(=O)N1CCC(Nc2cc(C(=O)NC[C@H](O)CN3CCc4ccccc4C3)ccn2)CC1 [Compound 454] |  |  |  | > 7.00 | > 7.00
38 | O=C(NC[C@H](O)CN1CCc2ccccc2C1)c1ccnc(NC2CCN(C(=O)C3CCC3)CC2)c1 [Compound 455] |  |  |  | > 7.00 | > 7.00
39 | CN(C)C(=O)CN1CC(Nc2cc(C(=O)NC[C@H](O)CN3CCc4ccccc4C3)ncn2)C1 [Compound 623] |  |  |  | > 7.00 | 4.30 to 5.00
40 | NC1=NC(C(=O)NC[C@H](O)CN2CCc3ccccc3C2)=CC2=NC(CO)CN12 (some centres unmarked) [Compound 625] |  |  |  | 6.00 to 7.00 | < 5.30

— patent US10307413B2, “Tetrahydro- and dihydro-isoquinoline PRMT5 inhibitors and uses thereof” (Epizyme, Inc., priority 2013, dated 2019)
